Experiments:
[1] = tested on: B-cell non-Hodgkin lymphoma; test: Single agent (monotherapy) clinical study in B-cell non-Hodgkin lymphoma patients; type: in vivo
[2] = Safety in single dose studies in healthy subjects; type: in vivo, human
[3] = Environmental stability (heat, acid, base); type: physicochemical

Row | SMILES | maximum tolerated dose (MTD) ([1]; single agent, up to 750 mg PO QD) | safety [2] | patients with stable disease continuing on treatment ([1]; B-cell non-Hodgkin lymphoma, monotherapy, as of Sep. 11, 2012) | patients with decreased lymph node size ([1]; evaluable B-NHL patients, monotherapy) | environmental instabilities (heat, acid, base) [3]
1 | C=CC(=O)Nc1cccc(Nc2nc(Nc3ccc(OCCOC)cc3)ncc2F)c1 [Compound 1, N-(3-(5-fluoro-2-(4-(2-methoxyethoxy)phenylamino)pyrimidin-4-ylamino)phenyl)acrylamide] | has not yet been reached | adequate safety |  |  | 
2 | C=CC(=O)Nc1cccc(Nc2nc(Nc3ccc(OCCOC)cc3)ncc2F)c1.O=S(=O)(O)c1ccccc1 [Compound 1 besylate, N-(3-(5-fluoro-2-(4-(2-methoxyethoxy)phenylamino)pyrimidin-4-ylamino)phenyl)acrylamide benzenesulfonic acid salt] |  |  | 9 out of 17 | Six of eleven | no environmental instabilities

Source: patent publication US20140142129A1, “METHODS OF TREATING A DISEASE OR DISORDER ASSOCIATED WITH BRUTON'S TYROSINE KINASE” (Celgene Avilomics Research, Inc,, priority 2012, published 2014)
